# Test results as given in ChEMBL document CHEMBL4033700, “From a novel HTS hit to potent, selective, and orally bioavailable KDM5 inhibitors” (Bioorg Med Chem Lett, 2017).
# Key:
# [1] = biological target: Lysine-specific demethylase 3B (Homo sapiens, UniProt Q7LBC6); assay: Inhibition of recombinant human N-terminal FLAG-tagged KDM3B expressed in baculovirus infected Sf9 insect cells using H3K9me1 peptide as substrate after 30 to 45 mins by TR-FRET assay
# [2] = biological target: T1, Lysine-specific demethylase 4C (Homo sapiens, UniProt Q9H3R0); assay: Inhibition of recombinant human N-terminal FLAG-tagged KDM4C expressed in baculovirus infected Sf9 insect cells using H3K9me3 peptide as substrate after 30 to 45 mins by TR-FRET assay
# T1 sequence (Q9H3R0 whole entry): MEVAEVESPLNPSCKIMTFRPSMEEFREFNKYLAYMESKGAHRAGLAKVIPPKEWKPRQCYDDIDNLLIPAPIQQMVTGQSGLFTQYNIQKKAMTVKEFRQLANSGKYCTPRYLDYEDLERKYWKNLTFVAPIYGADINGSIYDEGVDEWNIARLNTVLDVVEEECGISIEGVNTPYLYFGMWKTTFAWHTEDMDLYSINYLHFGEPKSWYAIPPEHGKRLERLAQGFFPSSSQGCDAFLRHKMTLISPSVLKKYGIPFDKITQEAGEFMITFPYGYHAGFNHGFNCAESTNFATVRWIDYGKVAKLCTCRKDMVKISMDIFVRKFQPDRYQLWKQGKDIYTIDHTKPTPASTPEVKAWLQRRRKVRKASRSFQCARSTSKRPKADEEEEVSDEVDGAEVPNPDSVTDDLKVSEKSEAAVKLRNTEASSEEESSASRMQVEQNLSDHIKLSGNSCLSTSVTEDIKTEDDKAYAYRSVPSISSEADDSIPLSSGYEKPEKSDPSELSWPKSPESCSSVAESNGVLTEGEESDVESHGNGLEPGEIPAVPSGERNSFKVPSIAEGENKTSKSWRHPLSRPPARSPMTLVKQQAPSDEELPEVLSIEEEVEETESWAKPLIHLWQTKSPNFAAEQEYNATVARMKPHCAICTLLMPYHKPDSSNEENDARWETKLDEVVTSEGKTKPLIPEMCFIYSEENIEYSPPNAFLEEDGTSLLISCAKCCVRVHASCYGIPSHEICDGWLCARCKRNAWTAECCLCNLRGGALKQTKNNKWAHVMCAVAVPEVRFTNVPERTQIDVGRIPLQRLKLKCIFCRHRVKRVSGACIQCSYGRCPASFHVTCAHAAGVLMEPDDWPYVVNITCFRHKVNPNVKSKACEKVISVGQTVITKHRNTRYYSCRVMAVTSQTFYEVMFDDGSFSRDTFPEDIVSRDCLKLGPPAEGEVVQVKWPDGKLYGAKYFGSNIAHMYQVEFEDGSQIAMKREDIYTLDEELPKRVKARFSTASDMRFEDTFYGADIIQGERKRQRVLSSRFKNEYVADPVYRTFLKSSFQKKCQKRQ
# [3] = Protein binding in rat plasma; assay type: ADME, cell-free; settings: read-out: PPB (converted)
# [4] = Hepatic clearance in mouse hepatocytes; assay type: ADME, cell-based, Hepatocyte
# Chain of Lysine-specific demethylase 3B (Q7LBC6 whole entry): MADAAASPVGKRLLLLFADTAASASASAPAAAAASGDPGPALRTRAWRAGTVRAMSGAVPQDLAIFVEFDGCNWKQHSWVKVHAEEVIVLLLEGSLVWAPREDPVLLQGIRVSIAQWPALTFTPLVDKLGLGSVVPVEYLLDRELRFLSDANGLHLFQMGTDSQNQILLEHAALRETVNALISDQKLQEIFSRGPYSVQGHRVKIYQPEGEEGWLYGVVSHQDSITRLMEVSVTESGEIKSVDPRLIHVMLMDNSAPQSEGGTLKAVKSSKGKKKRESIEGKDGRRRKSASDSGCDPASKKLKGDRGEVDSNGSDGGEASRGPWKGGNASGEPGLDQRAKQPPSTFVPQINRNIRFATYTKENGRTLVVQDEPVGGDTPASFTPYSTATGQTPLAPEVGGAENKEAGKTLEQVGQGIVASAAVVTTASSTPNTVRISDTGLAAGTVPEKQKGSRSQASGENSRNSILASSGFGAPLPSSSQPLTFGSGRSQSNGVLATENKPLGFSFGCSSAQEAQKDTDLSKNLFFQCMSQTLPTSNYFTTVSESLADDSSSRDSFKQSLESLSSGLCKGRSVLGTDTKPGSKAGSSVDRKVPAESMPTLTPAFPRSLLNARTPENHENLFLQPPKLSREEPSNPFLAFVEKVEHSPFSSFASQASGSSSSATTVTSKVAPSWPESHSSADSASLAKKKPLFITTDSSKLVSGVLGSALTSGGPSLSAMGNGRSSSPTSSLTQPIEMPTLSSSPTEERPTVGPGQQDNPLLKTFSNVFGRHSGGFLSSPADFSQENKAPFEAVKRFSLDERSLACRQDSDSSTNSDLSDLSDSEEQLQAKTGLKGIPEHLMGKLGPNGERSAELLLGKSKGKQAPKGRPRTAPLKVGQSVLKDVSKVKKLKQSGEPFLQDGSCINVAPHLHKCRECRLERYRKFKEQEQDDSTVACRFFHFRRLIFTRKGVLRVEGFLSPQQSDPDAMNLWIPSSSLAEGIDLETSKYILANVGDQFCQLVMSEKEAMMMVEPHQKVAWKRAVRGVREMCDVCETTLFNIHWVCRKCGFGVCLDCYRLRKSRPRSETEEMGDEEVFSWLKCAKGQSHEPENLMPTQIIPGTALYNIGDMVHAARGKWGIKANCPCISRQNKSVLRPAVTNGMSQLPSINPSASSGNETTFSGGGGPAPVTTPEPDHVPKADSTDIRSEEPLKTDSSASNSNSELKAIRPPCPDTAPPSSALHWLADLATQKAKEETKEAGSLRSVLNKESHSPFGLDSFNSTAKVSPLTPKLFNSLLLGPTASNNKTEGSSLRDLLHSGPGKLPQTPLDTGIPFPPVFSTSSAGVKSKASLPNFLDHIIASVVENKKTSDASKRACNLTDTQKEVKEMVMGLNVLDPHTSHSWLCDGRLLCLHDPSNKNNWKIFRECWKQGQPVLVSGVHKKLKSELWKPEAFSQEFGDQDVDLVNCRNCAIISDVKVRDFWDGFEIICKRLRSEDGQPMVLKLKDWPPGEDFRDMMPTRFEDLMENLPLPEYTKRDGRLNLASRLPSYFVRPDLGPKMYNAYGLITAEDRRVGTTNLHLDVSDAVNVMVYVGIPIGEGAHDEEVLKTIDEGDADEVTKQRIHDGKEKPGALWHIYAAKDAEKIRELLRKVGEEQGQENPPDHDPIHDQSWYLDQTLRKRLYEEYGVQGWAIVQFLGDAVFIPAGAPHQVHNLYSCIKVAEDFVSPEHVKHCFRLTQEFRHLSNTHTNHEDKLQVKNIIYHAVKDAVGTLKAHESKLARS
compound,measurement,setting,value
CC(C)c1cc(C(=O)N2CC[C@@H](NC(=O)C3CC3)C2)[nH]n1,IC50,[1],> 25 µM
same,IC50,[2],4.1 µM
same,fraction unbound,[3],0.624
same,CLhep predicted,[4],0.6 mL/min/kg
